Laboratory results as given in PubChem BioAssay (NCI).
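A five-concentration, 48-hour dose response in 96-well plates underlies each endpoint, interpolated linearly between surrounding concentrations. TGI: total growth inhibition.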

How the values were obtained:
Experiment in all cases: growth of human tumour cells (NCI), 48 h
CAKI-1 renal = system: CAKI-1 renal
COLO 205 colon = system: COLO 205 colon
DU-145 prostate = system: DU-145 prostate
MDA-N = system: MDA-N
NCI-H226 lung = system: NCI-H226 lung
NCI-H460 lung = system: NCI-H460 lung
OVCAR-5 ovarian = system: OVCAR-5 ovarian
RXF 393 renal = system: RXF 393 renal
SF-268 CNS = system: SF-268 CNS
T-47D breast = system: T-47D breast

**Q.** For CC1(C)CCC[C@]2(C)[C@@H]1CC[C@@]13O[C@@H]1C1=C(CO)C(=O)O[C@]14O[C@@H]4[C@@H]23, which TGI (CAKI-1 renal) is on record?
**A.** 36.4 µM

**Q.** What about the TGI (COLO 205 colon) of the same compound?
**A.** 40.3 µM

**Q.** What about the TGI (DU-145 prostate) of the same compound?
**A.** 33.8 µM

**Q.** And the TGI (MDA-N)?
**A.** 20.1 µM

**Q.** And the TGI (NCI-H226 lung)?
**A.** 42.1 µM

**Q.** What about the TGI (NCI-H460 lung) of the same compound?
**A.** 41 µM

**Q.** And the TGI (OVCAR-5 ovarian)?
**A.** 31.8 µM

**Q.** And the TGI (RXF 393 renal)?
**A.** 25.2 µM

**Q.** And the TGI (SF-268 CNS)?
**A.** 29.6 µM

**Q.** What about the TGI (T-47D breast) of the same compound?
**A.** > 100 µM

**Q.** Which results are given for O=C(O)CC(NC(=O)Nc1ccc([N+](=O)[O-])cc1)C(=O)Nc1ccc([N+](=O)[O-])cc1 (stereo not given)?
**A.** TGI (CAKI-1 renal): > 100 µM; TGI (COLO 205 colon): > 100 µM; TGI (DU-145 prostate): > 100 µM; TGI (MDA-N): > 100 µM; TGI (NCI-H226 lung): > 100 µM; TGI (NCI-H460 lung): > 100 µM; TGI (OVCAR-5 ovarian): > 100 µM; TGI (RXF 393 renal): > 100 µM; TGI (SF-268 CNS): > 100 µM; TGI (T-47D breast): > 100 µM

**Q.** How did the TGI (CAKI-1 renal) turn out when CC1(C)C2CCC1(CS(=O)(=O)Nc1ccccc1)C(=O)C2 (stereo not given) was run?
**A.** > 100 µM

**Q.** What about the TGI (COLO 205 colon) of the same compound?
**A.** > 100 µM

**Q.** What about the TGI (DU-145 prostate) of the same compound?
**A.** > 100 µM

**Q.** And the TGI (MDA-N)?
**A.** > 100 µM

**Q.** What about the TGI (NCI-H226 lung) of the same compound?
**A.** > 100 µM

**Q.** What about the TGI (NCI-H460 lung) of the same compound?
**A.** > 100 µM

**Q.** And the TGI (OVCAR-5 ovarian)?
**A.** > 100 µM

**Q.** What about the TGI (RXF 393 renal) of the same compound?
**A.** > 100 µM

**Q.** And the TGI (SF-268 CNS)?
**A.** > 100 µM

**Q.** And the TGI (T-47D breast)?
**A.** > 100 µM

**Q.** How did the TGI (CAKI-1 renal) turn out when CC(=O)N1N=C(c2c(O)ccc3ccccc23)CC1C(=O)c1ccco1 (stereo not given) was run?
**A.** > 100 µM

**Q.** What about the TGI (COLO 205 colon) of the same compound?
**A.** 86 µM

**Q.** What about the TGI (DU-145 prostate) of the same compound?
**A.** > 100 µM

**Q.** And the TGI (MDA-N)?
**A.** 76.9 µM

**Q.** What about the TGI (NCI-H226 lung) of the same compound?
**A.** > 100 µM

**Q.** What about the TGI (NCI-H460 lung) of the same compound?
**A.** > 100 µM

**Q.** And the TGI (OVCAR-5 ovarian)?
**A.** > 100 µM

**Q.** And the TGI (RXF 393 renal)?
**A.** > 100 µM

**Q.** And the TGI (SF-268 CNS)?
**A.** > 100 µM

**Q.** What about the TGI (T-47D breast) of the same compound?
**A.** > 100 µM

**Q.** What does the source list for COCn1c2ccc(OC(C)=O)cc2c2c(=O)oc(C)nc21?
**A.** TGI (CAKI-1 renal): > 100 µM; TGI (COLO 205 colon): > 100 µM; TGI (DU-145 prostate): > 100 µM; TGI (MDA-N): > 100 µM; TGI (NCI-H226 lung): > 100 µM; TGI (NCI-H460 lung): > 100 µM; TGI (OVCAR-5 ovarian): > 100 µM; TGI (RXF 393 renal): > 100 µM; TGI (SF-268 CNS): > 100 µM; TGI (T-47D breast): > 100 µM
